From PubChem BioAssay AID1645865 (Buhrlage Lab, Dana-Farber Cancer Institute and Novartis …, 2021)
Active and inactive are the calls of the source.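 How the source made its calls: active means maximal inhibition of the USP30 enzyme reaching 30% or more across the dose series; inactive means the rest.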

molecular target: Ubiquitin carboxyl-terminal hydrolase 30 (Homo sapiens) (UniProt Q70CQ3); assay: ubiquitin-specific protease 30 DUB inhibitors, concentration-effect, biochemical, validation of primary actives (AID 1645865); conditions: purified USP30, Ub-rhodamine cleavage, fluorescence, 2 h
Sequence (Q70CQ3 whole entry, looked up): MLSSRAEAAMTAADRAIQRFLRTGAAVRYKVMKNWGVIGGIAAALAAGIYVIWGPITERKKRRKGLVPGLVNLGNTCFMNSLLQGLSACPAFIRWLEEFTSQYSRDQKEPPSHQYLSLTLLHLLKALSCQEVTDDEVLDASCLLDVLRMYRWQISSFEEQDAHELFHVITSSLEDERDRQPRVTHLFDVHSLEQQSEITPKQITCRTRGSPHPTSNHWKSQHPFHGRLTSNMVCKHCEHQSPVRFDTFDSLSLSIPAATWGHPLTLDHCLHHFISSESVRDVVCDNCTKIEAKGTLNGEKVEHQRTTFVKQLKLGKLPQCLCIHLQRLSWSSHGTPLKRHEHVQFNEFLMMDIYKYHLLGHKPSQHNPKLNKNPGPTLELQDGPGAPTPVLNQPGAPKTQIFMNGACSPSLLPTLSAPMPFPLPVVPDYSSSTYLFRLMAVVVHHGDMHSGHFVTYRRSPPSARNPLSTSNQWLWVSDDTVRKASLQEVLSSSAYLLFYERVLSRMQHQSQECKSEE

Row | SMILES | IC50
1 | O=C(NCC1CC1)C1CCCN(c2ccc(-c3ccccc3)nn2)C1 (configuration not stated) | > 50 µM (inactive)
2 | COc1ccccc1C(=O)NCC(c1ccc2c(c1)CCCN2C)N1CCCC1 (configuration not stated) | > 50 µM (inactive)
3 | COc1c(O)c(O)c2c(=O)cc(-c3ccc(O)cc3)oc2c1OC | > 50 µM (inactive)
4 | Cc1ccc(NC(=O)c2ccc3c(c2)N(S(C)(=O)=O)CC3)cc1 | 34 µM
5 | O=C(NCc1ccc(F)cc1)c1cc(-n2cnnn2)ccc1Cl | 21.3 µM
6 | COc1ccc(-c2cc3nc(C)cc(Nc4ccc(F)cc4)n3n2)cc1OC | > 50 µM (inactive)
7 | O=C(NCCn1ccc2ccccc21)c1cc2ccccc2oc1=O | 40.9 µM
8 | COc1ccc(C(=O)Nc2n[nH]c(C)c2-c2cccc(C)c2)c(OC)c1 | 2.31 µM
9 | O=C(NCCCN1CCc2ccccc2C1)c1cc2c(s1)CS(=O)(=O)C2 | > 50 µM (inactive)
10 | CCC1=C(c2ccc(C)cc2)S(=O)(=O)NC1=NCC(=O)NC(C)c1ccccc1 (configuration not stated) | 21.1 µM
11 | Cc1cc2nc(/C=C/c3ccccc3)n(Cc3cccc(F)c3)c2cc1C | > 50 µM (inactive)
12 | Cc1nn(-c2ccc(Cl)cc2)c2[nH]c(=O)c(CNCC3CCCO3)cc12 (configuration not stated) | > 50 µM (inactive)
13 | CC1(O)CC(=O)c2c(cc3cc(O)cc(O)c3c2O)C1 (configuration not stated) | 0.182 µM
14 | CC1CCN(c2nc(F)c3c(c2F)S(=O)(=O)CCN3Cc2cccnc2)CC1 | > 50 µM (inactive)
15 | CCC(=O)Nc1nc2cc(NC(=O)Nc3cc(C)cc(C)c3)ccc2s1 | 1.65 µM
16 | Cc1c(C)c2ccc(OCC(=O)NCc3ccncc3)c(C)c2oc1=O | 31.1 µM
17 | O=c1[nH]c(-c2ccccn2)nc2c1CCN(Cc1cnn(-c3ccccc3)c1)C2 | > 50 µM (inactive)
18 | CN1CCN(C(=O)c2cc(-c3ccn(-c4ccccc4)n3)n3ccccc23)CC1 | > 50 µM (inactive)
19 | CC(C)c1ccc(NC(=O)c2cc3ncc(Br)cn3n2)cc1 | > 50 µM (inactive)
20 | Cc1ccccc1NC(=O)Cn1cc(-c2nc(C3CC3)no2)ccc1=O | > 50 µM (inactive)
21 | O=C(NCc1ccncc1)C1CCN(c2cncnc2N2CCCCC2)CC1 | > 50 µM (inactive)
22 | O=C(CCC1CCCCC1)Nc1ccccc1C(=O)N1CCOCC1 | > 50 µM (inactive)
23 | CC1CC[C@@]2(NC1)O[C@H]1C[C@H]3[C@@H]4CC=C5C[C@@H](O)CC[C@]5(C)[C@H]4CC[C@]3(C)[C@H]1[C@@H]2C (some centres not stated) | 13 µM

Row | SMILES | IC50
24 | Clc1cc2nc(N3CCN(c4ccccn4)CC3)c3nncn3c2cc1Cl | 2.16 µM
25 | O=C1c2ccccc2-n2c1nc1ccccc1c2=O | > 50 µM (inactive)
26 | COc1cccc(N2CCN(C(=O)Nc3ccc4c(c3)NC(=O)CO4)CC2)c1 | 21.8 µM
27 | O=C(COc1ccc(F)cc1)Nc1cnc(-c2ccc(Cl)cc2)nc1 | 38 µM
28 | COc1ccc(NC(=O)COc2ccc3ccc(=O)oc3c2)cc1 | 34.8 µM
29 | C=C(NC(=O)C(=C)NC(=O)c1csc(C2=N[C@@H]3c4csc(n4)[C@H]4NC(=O)c5csc(n5)[C@H]([C@](C)(O)[C@@H](C)O)NC(=O)[C@H]5CSC(=N5)/C(=C/C)NC(=O)C([C@@H](C)O)NC(=O)c5csc(n5)C3(CC2)NC(=O)[C@H](C)NC(=O)C(=C)NC(=O)[C@H](C)NC(=O)C([C@@H](C)CC)N[C@@H]2C=Cc3c(C(C)O)cc(nc3[C@H]2O)C(=O)OC4C)n1)C(N)=O (some centres not stated) | > 50 µM (inactive)
30 | CC(C)C1Cc2c(sc3nc(SCC(=O)Nc4cccc5ccccc45)nc(N)c23)CO1 (configuration not stated) | > 50 µM (inactive)
31 | C=C(NC(=O)C(=C)NC(=O)c1csc(C2=N[C@@H]3c4csc(n4)[C@H]4NC(=O)c5csc(n5)[C@H]([C@](C)(O)[C@@H](C)O)NC(=O)C5CSC(=N5)/C(=C/C)NC(=O)C([C@@H](C)O)NC(=O)c5csc(n5)[C@]3(CC2)NC(=O)[C@H](C)NC(=O)C(=C)NC(=O)[C@H](C)NC(=O)C([C@@H](C)CC)NC2C=Cc3c(C(C)O)cc(nc3[C@H]2O)C(=O)OC4C)n1)C(N)=O (some centres not stated) | > 50 µM (inactive)
32 | COc1ccc(C)cc1NC(=O)C(NS(=O)(=O)c1ccc2c(c1)CCN2C(C)=O)C(C)C (configuration not stated) | > 50 µM (inactive)
33 | Cc1nc(N2CCCC2)ncc1C(=O)Nc1ccc(F)c(F)c1 | 31.1 µM
34 | COC(=O)[C@]1(O)O[C@@]2(C(=O)OC)c3c(oc4cc(C)cc(O)c4c3=O)[C@H]3c4c(oc5cc(C)cc(O)c5c4=O)C[C@H]1[C@H]32 | > 50 µM (inactive)
35 | COc1ccccc1-c1nc2c3c(C)c(C)n(-c4ccc(Br)cn4)c3ncn2n1 | 0.887 µM
36 | CCOc1ccc2[nH]c3c(=O)n(CCc4ccc(OC)cc4)cnc3c2c1 | 2.05 µM
37 | Cc1sc(-c2cccnc2)nc1OC(=O)c1ccc(Cl)c(Cl)c1 | > 50 µM (inactive)
38 | O=C(O)COc1ccccc1/C=C1\CCc2c1nc1ccccc1c2C(=O)O | > 50 µM (inactive)
39 | CCN1C(=O)c2cccnc2Sc2cc(NC(=O)c3ccc(Cl)s3)ccc21 | > 50 µM (inactive)
40 | O=C(CSc1nnc2n1CCCCC2)Nc1ccc2[nH]c(=O)[nH]c2c1 | > 50 µM (inactive)
41 | Cc1sc(NC(=O)/C=C/c2ccco2)nc1-c1ccccc1 | > 50 µM (inactive)
42 | COc1cc([C@@H]2c3cc4c(cc3C[C@@H]3COC(=O)[C@H]32)OCO4)cc(OC)c1OC | 18.7 µM
43 | COc1cc(NC(=O)COC(=O)Cn2cnc3ccccc32)cc(OC)c1 | > 50 µM (inactive)
44 | COc1ccc(CN(C(=O)c2cc(-c3ccc(C)cc3)on2)C2CCS(=O)(=O)C2)cc1 (configuration not stated) | 10.2 µM
45 | O=C(Nc1ccc2c(c1)OCCO2)c1cccc2nc3ccccc3nc12 | 1.56 µM
46 | Cc1cc(C)c2cc(C(=O)NC3CCN(Cc4ccccc4)CC3)[nH]c2c1 | 8.5 µM

Row | SMILES | IC50
47 | CCOC(=O)c1sc2nc(CC(=O)OC)nc(NCc3ccco3)c2c1C | > 50 µM (inactive)
48 | COc1cccc(CNC(=O)c2ccc(CSc3nc4ccncc4n3Cc3ccccc3F)cc2)c1 | 29.2 µM
49 | CC(C)OC(=O)c1cc2c(ccn2C)n1CC(=O)N1CCN(C(=O)c2ccco2)CC1 | > 50 µM (inactive)
50 | Cc1nc2ccc(NC(=O)COc3ccccc3[N+](=O)[O-])cc2s1 | 9.57 µM
51 | CCCn1cc(C(=O)N2CCC3(CC2)CC2(CO3)Nc3ccccc3-n3cccc32)c(C)n1 (configuration not stated) | > 50 µM (inactive)
52 | Cc1ccc(NC(=O)c2ccn(COc3ccc(F)cc3)n2)nc1 | 24.8 µM
53 | Cc1nn(-c2cccc(F)c2)c2c1c(C)c(CCC(=O)NCc1ccccn1)c(=O)n2C | 3.22 µM
54 | O=C(NCc1ccc(Cl)cc1)c1ccc(N2CCCS2(=O)=O)cc1 | > 5 µM (inactive)
55 | CC(C)c1cc(NCc2ccccc2)n2nc(-c3cccnc3)nc2n1 | 19.7 µM
56 | CC(NC(=O)c1ccccc1)c1nc2ccccc2n1CC(=O)Nc1ccc2c(c1)OCO2 (configuration not stated) | 2.06 µM
57 | Cc1ccc(-n2nc(C)c3c2NC(=O)CC3C(=O)c2cc3ccccc3o2)cc1C (configuration not stated) | > 50 µM (inactive)
58 | COc1ccccc1OCc1ccc(C(=O)Nc2ccc(F)cc2C)cc1 | 28.3 µM
59 | O=C(COc1cccc(-n2cnnn2)c1)Nc1ccc2c(c1)OCCO2 | > 50 µM (inactive)
60 | COC(=O)c1ccc2c(=O)n(CCCCCC(=O)NCCc3ccc(S(N)(=O)=O)cc3)c(=O)[nH]c2c1 | 6.13 µM
61 | COc1cc(Cl)ccc1C(=O)Nc1cccc(-n2cnnn2)c1C | 10.2 µM
62 | CCC(C)NC(=O)Cn1c(=O)n(-c2ccccc2)c(=O)c2ccc(C(=O)NCc3ccco3)cc21 (configuration not stated) | 28.5 µM
63 | CCc1cc2cc3c(cc2nc1SCC(=O)Nc1cccc(C(C)=O)c1)OCO3 | 2.13 µM
64 | COc1ccccc1-c1ccc(SCC(=O)Nc2ccc3c(c2)OCCO3)nn1 | > 50 µM (inactive)
65 | O=C(COc1nc2ccccc2nc1N1CCOCC1)Nc1cccc(S(=O)(=O)N2CCCCC2)c1 | > 50 µM (inactive)
66 | CC(=O)Nc1cccc(NC(=O)COc2cccc3ccc(N4CCCC4)nc23)c1 | > 50 µM (inactive)
67 | O=C(Nc1ccc(Cl)cc1)Nc1cccn2ncnc12 | 18.7 µM
68 | CCc1ccc(NC(=O)Cc2nnc3cc(-c4nc(C)no4)ccn23)cc1 | 2.37 µM
69 | Cc1ccc2nc(NC(=O)C3CCCN3S(=O)(=O)c3ccc4c(c3)OCCO4)sc2c1 (configuration not stated) | > 50 µM (inactive)

Row | SMILES | IC50
70 | CCOc1ccc(-c2ccc3nnc(SCC(=O)Nc4cccc(C(C)=O)c4)n3n2)cc1 | 3.81 µM
71 | O=C(Cc1cc(-c2ccc(F)cc2)on1)NCc1ccccc1 | 18.3 µM
72 | Cc1noc(C)c1S(=O)(=O)Nc1ccc(C(=O)Nc2ccc3c(c2)OCCO3)cc1 | > 50 µM (inactive)
73 | CC(=O)Nc1ccc(-n2cnc(C(=O)NC(C)c3ccccc3)c2)nc1 (configuration not stated) | 25.8 µM
74 | CC(C)c1nc2sc3c(NCc4ccco4)ncnc3c2c2c1CCC2 | > 50 µM (inactive)
75 | CN(CCCNC(=O)c1cccc2c1SCCC2=O)c1ccccc1 | > 50 µM (inactive)
76 | Cc1nn(-c2nc3ccccc3[nH]2)c2c1C(c1cccs1)CC(=O)N2 (configuration not stated) | > 50 µM (inactive)
77 | O=c1c2c(ccn1Cc1cc(F)ccc1F)ccn2Cc1cccnc1 | > 50 µM (inactive)
78 | Cc1cc(Cl)c2c(c1)[C@]1(C(=O)N2)N2CCC[C@H]2[C@@H](C(=O)c2cc3ccccc3o2)[C@]12C(=O)Nc1ccccc12 | > 50 µM (inactive)
79 | O=C(CCc1ccc(S(=O)(=O)N2CCOCC2)cc1)Nc1ccc2c(c1)OCCO2 | > 50 µM (inactive)
80 | Cn1cc(CCNC(=O)c2cc3ccccc3[nH]2)c2cccnc21 | > 50 µM (inactive)
81 | COc1ccc(-c2cc(-c3ccc(O)cc3)nc(N)c2C#N)cc1OC | > 50 µM (inactive)
82 | O=C(/C=C/c1ccc(F)cc1)N1CCc2ccccc2C1 | > 50 µM (inactive)
83 | CCc1nnc(NC(=O)c2nnn(-c3ccccc3Cl)c2C)s1 | > 50 µM (inactive)
84 | COc1ccc(-c2cc3nc([C@H](C)NC(=O)Cc4ccccc4C)nn3cn2)cc1 | 1.9 µM
85 | COc1ccc(OC)c(-n2c(SCC(=O)N3CCc4ccccc43)nnc2-c2cccc(S(=O)(=O)N(C)C)c2)c1 | 3.12 µM
86 | CC(C)(C)OC(=O)N1CCN(C(=O)Cn2c(=O)nc(-c3ccccc3)c3ccccc32)CC1 | > 50 µM (inactive)
87 | CC1CCN(c2cc(-n3cnc(C(=O)N4CCCC(C)C4)c3)ncn2)CC1 (configuration not stated) | > 50 µM (inactive)
88 | Cc1nn(Cc2ccccc2)c(Cl)c1C(=O)NC1CCCc2ccccc21 (configuration not stated) | > 50 µM (inactive)
89 | Cc1nc(-c2ccc(C(=O)NCc3ccc(F)cc3)cc2)cs1 | 38.3 µM
90 | O=C(Cn1cnc2c(cnn2-c2ccc(Cl)cc2)c1=O)NCc1ccccc1Cl | 2.33 µM
91 | Cc1ccc(C)c(NC(=O)CCc2nc(CSc3nc4ccccc4o3)no2)c1 | 23.8 µM
92 | CCCCCCCc1cc(O)cc(O)c1 | 38.9 µM
